According to article PMC8400480, “Synthesis, Antibacterial and Pharmacokinetic Evaluation of Novel Derivatives of Harmine N^9-Cinnamic Acid” (Molecules, 2021):
In brackets after ≈: the same amount, converted by molar mass. Like-named read-outs stand apart in the source and are kept apart here.

Legend:
[1] = tested on: Escherichia coli CICC 10389 (E. coli); assay: MIC, microplate dilution method; assay type: cell-based; conditions: read-out: MIC E. coli
Text: (§1) According to microplate dilution method, all the prepared compounds were screened for their in vitro antibacterial activity. The investigation included three representative Gram-positive strains, including Staphylococcus aureus CICC 10384 (S. aureus), Staphylococcus albus CICC 20237 (S. albus) and methicillinresistant Staphylococcus aureus ATCC 43300 (MRSA), and two representative Gram-negative strains, including Escherichia coli CICC 10389 (E. coli) and Pseudomonas aeruginosa CVCC 3359 (PA). Harmine and cinnamic acid were used as reference drugs.
(§2) The antibacterial efficiency of all prepared compounds was determined using the microplate dilution method. All compounds were prepared into different concentrations of stock solution according to their solubility. The compounds were added to the 96 well plate and serially diluted in Mueller-Hinton broth. Three Gram-positive strains (S. aureus, S. albus and MRSA) and two Gram-negative strains (E. coli and PA) were cultivated and added to the 96 well plate. The initial concentration of bacteria should be higher than 10^5 CFU/mL. The samples were incubated at 37 °C for 18–24 h. The MIC was determined for compounds by observing change of clarity in the broth. The same procedure was repeated in triplicate.

[2] = tested on: Pseudomonas aeruginosa CVCC 3359 (PA); assay: MIC, microplate dilution method; assay type: cell-based; conditions: read-out: MIC PA
Text: as §1, §2

[3] = tested on: Staphylococcus albus CICC 20237 (S. albus); assay: MIC, microplate dilution method; assay type: cell-based; conditions: read-out: MIC S. albus
Text: as §1, §2

[4] = tested on: Staphylococcus aureus CICC 10384 (S. aureus); assay: MIC, microplate dilution method; assay type: cell-based; conditions: read-out: MIC S. aureus
Text: as §1, §2

[5] = tested on: methicillinresistant Staphylococcus aureus ATCC 43300 (MRSA); assay: MIC, microplate dilution method; assay type: cell-based; conditions: read-out: MIC MRSA
Text: as §1, §2

S. aureus (CICC 10384) = assay: Bactericidal time-kill kinetics; assay type: cell-based, Staphylococcus aureus
Procedure: The bacteria S. aureus was prepared in Muellere Hinton broth at 37 °C for 6 h with shaking. The solution of 3c (1 × MIC and 6 × MIC), 5a (1 × MIC and 6 × MIC), harmine (1 × MIC and 6 × MIC) and saline (served as a control group) were separately added to the bacterial suspension so that the final bacterial concentration were 10^6~10^7 CFU/mL. At the predetermined time point (0, 0.5, 2, 4, 6, 12 and 24 h), […] of aliquots were serially diluted in normal saline, plated on sterile Muellere Hinton agar plates, and incubated at 37 °C for 24 h. After incubation, the viable colonies were counted and represented as log10 (CFU/mL). The same procedure was repeated in triplicate.
Figure 3 Time-kill kinetics of compound 3c (A) and 5a (B) at 1 × and 6 × MIC against S. aureus (CICC 10384).

[6] = tested on: HepG2 (human liver carcinoma cells); assay: In vitro cytotoxic activity, MTT assay; assay type: cell-based; conditions: read-out: IC50 HepG2
Procedure: (§3) In vitro cytotoxic activity of 3c was evaluated using MTT (3-(4,5)-dimethylthi ahiazo (-2)-3,5-diphenytetrazoliiumromide) assay using WI-38 (Human embryonic lung fibroblasts), MCF-7 (human breast cancer cells) and HepG2 (human liver carcinoma cells). Harmine was used as a control.
(§4) The in vitro cytotoxicity of 3c was determined using MTT assay. WI-38 (Human embryonic lung fibroblasts), MCF-7 (Human breast cancer cells) and HepG2 (human liver carcinoma cells) were purchased from American Type Culture Collection (Manassas, VA, USA). The cells were maintained using Dulbecco’s modified eagle’s medium (DMEM, Sangon Biotech, Shanghai, China) supplemented with 10% fetal bovine serum (FBS, Sijiqing Bioengineering Material Co., Ltd., Hangzhou, China), 100 U/mL penicillin and 100 μg/mL streptomycin in a humidified 37 °C incubator under 5% CO2. 100 μL culture medium at a concentration of 1 × 10^4 cells/mL was added to 96-well plate and incubated in a humidified 37 °C incubator under 5% CO2. After 24 h, 10 µL solution of 3c and harmine dissolved in DMSO and PBS and then diluted with DMEM under a concentration gradient, which was added in the wells for final concentrations of 1000, 500, 250, 125, 62.5 µmol/L of compounds in WI-38 and 160, 80, 40, 20, 10 µmol/L of compounds in MCF-7 and Hep-G2. After 48 h incubation, 10 μL MTT solution (5 mg/mL) was added into each well and incubated in a humidified 37 °C incubator under 5% CO2. After 4 h, the supernatant was removed and 150 μL DMSO was added. The absorbance of each well was determined by an enzyme-linked immunosorbent assay reader (Thermo Fisher Scientific Inc., Rochester, NY, USA) at wavelengths of 570 nm. The experiments were performed in triplicate.

[7] = tested on: MCF-7 (human breast cancer cells); assay: In vitro cytotoxic activity, MTT assay; assay type: cell-based; conditions: read-out: IC50 MCF-7
Procedure: as §3, §4

[8] = tested on: WI-38 (Human embryonic lung fibroblasts); assay: In vitro cytotoxic activity, MTT assay; assay type: cell-based; conditions: read-out: IC50 WI-38
Procedure: as §3, §4

[9] = In vivo pharmacokinetic study in rats; conditions: both sexes, Sprague-Dawley, plasma, rat
Procedure: Adult males and females Sprague Dawley rats, with average weight of 200–250 g, were purchased from the Experiment Animal Center of Lanzhou University (Lanzhou, China). The rats were housed under an environmentally controlled room for one week before staring the experiment. All procedures were performed according to the guidelines issued by the Ethical Committee of Lanzhou University (Permit Number: SYXK(Gan)-2018-0002).
After 7 days acclimatization, rats were randomly divided into two groups with half male and half female in each group (n = 6). All animals were fasted for 12 h with access to water prior to dosing. One group was intravenously administered with 3c at dose of 10 mg/kg. Another group was oral administered with 3c at dose of 40 mg/kg. Approximately 0.3 mL of blood samples were collected into heparinized tubes from the orbital vein at 0.083, 0.25, 0.5, 0.75, 1, 2, 4, 8, 12 and 24 h after the administration. The heparinized blood samples were immediately centrifuged at 4000 rpm for 10 min and the upper plasma was separated and immediately stored at −20 °C used for UPLC-MS/MS analysis.
Plasma samples were processed as follows. First, 100 μL of plasma samples and 50 μL of tinidazole (1000 ng/mL, internal standard) were mixed by vortex for 1 min. Next, 250 μL of acetonitrile were added to the mixture and vortexed for 10 min. After centrifugation at 10,000 rpm for 10 min, 200 μL of the upper organic layer were removed into 1.5 mL centrifuge tube and dried with nitrogen. Finally, the residue was reconstituted in 100 μL of 50% acetonitrile, vortexed for 1 min, centrifuged at 10,000 rpm for 10 min, and then the supernatant was used for UPLC-MS/MS analysis.
The obtained data were analyzed using a non-compartment open model with PKsolver Software. Pharmacokinetic parameters and the experiment data were expressed as the mean ± standard deviation (SD). A paired student’s t-test was used for statistical analysis, with p < 0.05 considered the minimum level of significance.

[10] = Gram-negative, Mueller-Hinton broth, 37 °C, 18–24 h
[11] = Gram-positive, Mueller-Hinton broth, 37 °C, 18–24 h
[12] = iv, i.v. 10 mg/kg, single dose, n = 6, Mean ± SD
[13] = po, i.g. 40 mg/kg, single dose, n = 6, Mean ± SD

Question: For `COc1ccc2c3ccnc(C)c3n(CCCOC(=O)/C=C/c3ccccc3[N+](=O)[O-])c2c1` [Compound 3c, 4-(7-Methoxy-1-methyl-9H-pyridine [3,4-b]indole-9-yl) propyl(E)-3-(2-nitrophenyl) acrylate], which MIC [1, 10] is on record?
Answer: 219 µg/mL (≈ 491 µM)

Question: And the MIC [2, 10]?
Answer: 219 µg/mL (≈ 491 µM)

Question: What about the MIC [3, 11] of the same molecule?
Answer: 13.7 µg/mL (≈ 30.7 µM)

Question: What about the MIC [4, 11] of the same molecule?
Answer: 13.7 µg/mL (≈ 30.7 µM)

Question: And the MIC [5, 11]?
Answer: 54.7 µg/mL (≈ 123 µM)

Question: And the “time to 4-log10 reduction” value (S. aureus (CICC 10384); 1 × MIC)?
Answer: about 4 h

Question: And the “time to completely kill the bacteria” value (S. aureus (CICC 10384); 6 × MIC)?
Answer: ≤ 0.5 h

Question: And the IC50 ([6]; HepG2, MTT, 48 h incubation, n = 3, Mean ± SD)?
Answer: 161.7 ± 1.31 µM

Question: And the IC50 ([7]; MCF7, MTT, 48 h incubation, n = 3, Mean ± SD)?
Answer: 94.9 ± 3.64 µM

Question: What about the IC50 ([8]; WI-38, MTT, 48 h incubation, n = 3, Mean ± SD) of the same molecule?
Answer: 340.3 ± 2.79 µM

Question: What about the AUC(0-inf) [9, 12] of the same molecule?
Answer: 1050 ± 231 ng·h/mL

Question: And the AUC(0-t) [9, 12]?
Answer: 1050 ± 229 ng·h/mL

Question: And the Cmax [9, 12]?
Answer: 837 ± 229 ng/mL

Question: What about the MRT [9, 12] of the same molecule?
Answer: 2.86 ± 0.71 h

Question: And the Tmax [9, 12]?
Answer: 0.083 ± 0.03 h

Question: And the half-life [9, 12]?
Answer: 2.27 ± 0.62 h

Question: What about the bioavailability ([9]; oral, i.g. 40 mg/kg vs i.v. 10 mg/kg, from AUC0→∞) of the same molecule?
Answer: 6.9%

Question: And the AUC(0-inf) [9, 13]?
Answer: 290 ± 55.2 ng·h/mL

Question: And the AUC(0-t) [9, 13]?
Answer: 284 ± 54.4 ng·h/mL

Question: And the CL/F [9, 13]?
Answer: 4.33 mL/min/kg

Question: And the Cmax [9, 13]?
Answer: 159 ± 59.6 ng/mL

Question: And the MRT [9, 13]?
Answer: 3.33 ± 0.83 h

Question: And the Tmax [9, 13]?
Answer: 0.25 ± 0.033 h

Question: And the half-life [9, 13]?
Answer: 1.3 ± 0.47 h

Question: What about the melting point of the same molecule?
Answer: 128.6 to 129.3 °C

Question: For `COc1ccc2c(c1)[nH]c1c(C)nccc12` [Harmine, 7-methoxy-1-methyl-9H-pyridine [3,4-b] indole], which MIC [1] is on record?
Answer: 15.6 µg/mL (≈ 73.6 µM)

Question: And the MIC [2]?
Answer: 15.6 µg/mL (≈ 73.6 µM)

Question: What about the MIC [3] of the same molecule?
Answer: 15.6 µg/mL (≈ 73.6 µM)

Question: What about the MIC [4] of the same molecule?
Answer: 31.2 µg/mL (≈ 147 µM)

Question: What about the MIC [5] of the same molecule?
Answer: 62.5 µg/mL (≈ 294 µM)

Question: And the “time-kill effect in words” value (S. aureus (CICC 10384); 1 × MIC)?
Answer: just slowed bacterial propagation

Question: What about the “time to 4-log10 reduction” value (S. aureus (CICC 10384); 6 × MIC) of the same molecule?
Answer: about 24 h

Question: What about the IC50 ([6]; HepG2, 48 h) of the same molecule?
Answer: 67.6 ± 1.6 µM

Question: And the IC50 ([7]; MCF7, 48 h)?
Answer: 78.9 ± 2.82 µM

Question: What about the IC50 ([8]; WI-38, 48 h) of the same molecule?
Answer: 103.4 ± 0.96 µM
